Data taken from patent US12421535B2, “Biochemically produced sandalwood oil” (FIRMENICH SA, priority 2019, dated 2025).

Columns and labels:
[1] = tested on: NHDF; test: Anti-inflammatory test, cytokine release (ELISA), LPS-challenged fibroblasts; format: cell-based, human; conditions: LPS 0.5 ug/ml
Method: (§1) Monolayer cultures of Normal Human foreskin-derived Dermal Fibroblasts (NHDFs; ATCC, CRL-2522) were used for the anti-inflammatory study. The cells were grown in Dulbecco's Modified Eagle Medium (DMEM, Gibco/Life Technologies, 31885) supplemented with 10% of Foetal Bovine Serum (FBS, Gibco/Life Technologies, 10270) and antibiotics (penicillin/streptomycin, Gibco/Life Technologies, 15140). Monolayer cultures of Normal Human Epidermal Keratinocytes (NHEKs; Lonza, 00192906) were used for the anti-inflammatory study. The cells were grown in Epilife medium containing gentamycin and HKGS (Human Keratinocyte Growth Supplement).
(§2) The cells were maintained in a humidified incubator at 37° C. with a 5% CO2 atmosphere for the indicated treatment periods before performing metabolic, cytokine and gene expression assays.
(§3) Both NHEK and NHDF cell types were cultured in 24-well plates for 24 h in complete medium before being exposed to the test and reference items. Test compositions were applied on the cells 2 h before the 24 h-challenge with pro-inflammatory agents (see table below). Each sample was compared to solvent control conditions. At the end of treatment, all the supernatants were collected and stored at −20° C. until further use in specific ELISA assays for the quantification of the extracellular release of IL-8, IL-6, TNF-α, MCP-1 and CXCL5, based on a standard curve, according to the kits supplier's specifications.
(§4) Sandalwood oil of the invention was tested at 20 μg/ml on both keratinocytes and fibroblasts, in a comparison with S. album essential oil. Keratinocytes and fibroblasts were cultivated under conditions that stimulate the onset of inflammation. After induction of an inflammation state and test compounds application, cell culture supernatants were collected for further ELISA quantification. The ability of the ingredients in reducing the production of selected inflammation markers (MCP-1, CXCL5, IL-6, IL-8 and TNFalpha for NHEK only) was then measured by ELISA (Enzyme-Linked ImmunoSorbent Assay), a biochemical assay commonly used to quantify substances.

[2] = tested on: NHEK; test: Anti-inflammatory test, cytokine release (ELISA), keratinocytes challenged with TNFα or PMA + A23187; format: cell-based, human; conditions: for IL-6 % Reduction (vs A23187/EtOH) / IL-6 % Stimulation (vs Untreated) / IL-8 % Reduction (vs PMA + A23187/EtOH) / IL-8 % Stimulation (vs Untreated) / TNFα % Reduction (vs PMA + A23187/EtOH) / TNFα % Stimulation (vs Untreated): PMA 10 ng/ml + A23187 2 uM; for CXCL-5 % Reduction (vs TNFa/EtOH) / CXCL-5 % Stimulation (vs Untreated) / MCP-1 % Reduction (vs TNFa/EtOH) / MCP-1 % Stimulation (vs Untreated): TNFa 50 ng/ml
Method: as §1, §2, §3, §4

[3] = tested on: ticks (Ixodes ricinus); test: Tick repellency, adapted Warm Plate assay; format: in vivo
Method: The repellent effect was determined on ticks (Ixodes ricinus) using an adaptation of the Warm Plate assay as defined in Kröber T, Bourquin M, Guerin P M. A standardised in vivo and in vitro test method for evaluating tick repellents. Pesticide Biochemistry and Physiology. 2013; 107(2):160-168, adapted in reducing the size of the arena and adding a controlled temperature and humid air flow to the set-up.

[4] = tested on: Reconstructed Human Epidermis (RHE); test: Permeability of Reconstructed Human Epidermis, biotin diffusion; format: cell-based
[5] = tested on: NHEKs keratinocytes; test: Cytotoxicity MTS assay, NHEKs under PMA/calcium ionophore or TNF-α challenge; format: cell-based, human; conditions: SDS 0.008%, 26 h
Method: (§5) A preliminary study was performed in order to determine the non-cytotoxic working concentrations for both the sandalwood oil of the invention and a reference sandalwood oil. The cell viability was evaluated using the standard MTS assay (3-(4,5-dimethythiazol-2-yl)-5-(3-carboxy-methoxyphenyl)-2-(4-sulfophenyl)-2H-tetrazolium) after treatment with the test ingredients (160-80-40-20-10 μg/ml, tested in triplicate).
(§6) The test was performed both under basal conditions (i.e. without pro-inflammatory challenge) and pro-inflammatory stimuli for either 24 h-72 h or 26 h, respectively. Cells were seeded in 24-wells plates with complete medium, 24 h before treatment.
(§7) Test ingredients were solubilized in solvent (DMSO or ethanol) and applied to the culture medium of cells 2 hours prior to the pro-inflammatory challenge (when required). SDS at 0.008% or 0.08% was used as cytotoxicity positive control to validate the experiment on NHEKs keratinocytes or NHDFs fibroblasts, respectively.
(§8) In order to ensure experiments would be carried out with test composition concentrations that are non-cytotoxic, a cytotoxicity study was performed on NHEK and NHDF after 26 h of treatment (2 h alone and 24 h under inflammatory challenge with LPS for NHDFs fibroblasts and PMA/calcium ionophore or TNF-α for NHEKs). […]

[6] = tested on: NHDFs fibroblasts; test: Cytotoxicity MTS assay, NHDFs under LPS challenge; format: cell-based, human; conditions: SDS 0.08%, 26 h
Method: as §5, §6, §7, §8

[7] = tested on: Reconstructed Human Epidermis (RHE) mimicking sensitive skin; test: Protein expression (immuno-fluorescence) in RHE model mimicking sensitive skin; format: cell-based; conditions: Cytokine Mix + solvent, 10 uM, 48 h, untreated = 100
Method: Human epidermis was reconstituted in vitro as described previously. […] Sandalwood oil of the invention was diluted at 20 μg/ml and 40 μg/ml in culture medium and added together with the cytokine cocktail during the same 48 h. The reference compound GW3965 (10 μM), a synthetic nonsteroidal liver X receptor (LXR) agonist was applied in the culture medium for 48 h as well. Protein levels of loricrin, involucrin and HAS3 were quantified at the end of the treatments by immuno-fluorescence. One section of each sample was dewaxed and rehydrated and the slides were incubated in the presence of the primary antibody specific for each of the 3 target proteins. Fluorescein-conjugated secondary antibodies were then used to detect the primary antibodies. DAPI Slowfade Diamond was used to detect the nuclei of the cells.

## C[C@@H]1C[C@H]2[C@@H]3CCC4=CC(=O)C=C[C@]4(C)[C@@]3(F)[C@@H](O)C[C@]2(C)[C@@]1(O)C(=O)CO [Dexamethasone]
[1]; 10 uM
  CXCL-5 % Reduction (vs LPS/EtOH): 77%
  CXCL-5 % Stimulation (vs Untreated): 6414%
  IL-6 % Reduction (vs LPS/EtOH): −70%
  IL-6 % Stimulation (vs Untreated): 6606%
  IL-8 % Reduction (vs LPS/EtOH): −39%
  IL-8 % Stimulation (vs Untreated): 7738%
  MCP-1 % Reduction (vs LPS/EtOH): −23%
  MCP-1 % Stimulation (vs Untreated): 1067%
[2]; 10 uM
  IL-6 % Reduction (vs A23187/EtOH): −55%
  IL-6 % Stimulation (vs Untreated): 275%
  IL-8 % Reduction (vs PMA + A23187/EtOH): −25%
  IL-8 % Stimulation (vs Untreated): 14801%
  TNFα % Reduction (vs PMA + A23187/EtOH): −57%
  TNFα % Stimulation (vs Untreated): 33869%
  CXCL-5 % Reduction (vs TNFa/EtOH): 251%
  CXCL-5 % Stimulation (vs Untreated): 1525%
  MCP-1 % Reduction (vs TNFa/EtOH): −53%
  MCP-1 % Stimulation (vs Untreated): 1432%

## CCCCN(CCC(=O)OCC)C(C)=O [IR3535, Ethyl butylacetylaminopropionate]
[3]; 0.016 mg/mL
  % of affected ticks: 0%
[3]; 0.4 mg/mL
  % of affected ticks: 33%
[3]; 10 mg/mL
  % of affected ticks: 56%

## CCCCCCCCCCCCOS(=O)(=O)[O-].[Na+] [SDS]
[4]; 48 h, SDS 0.005%
  Surface stained*mean intensity/surface area: 103
[4]; 48 h, SDS 0.005%, versus untreated
  biotin abundance (% relative to untreated): 614%
[4]; SDS at 0.005%, compared to untreated control
  barrier function of epidermis: reduced the barrier function
[5]
  cell viability: strong decrease in cell viability
[6]
  cell viability: strong decrease in cell viability

## CCC(C)OC(=O)N1CCCCC1CCO (centres unmarked) [Picaridin, sec-butyl 2-(2-hydroxyethyl)piperidine-1-carboxylate]
[3]; 0.016 mg/mL
  % of affected ticks: 8%
[3]; 0.4 mg/mL
  % of affected ticks: 50%
[3]; 10 mg/mL
  % of affected ticks: 92%

## CCN(CC)C(=O)c1cccc(C)c1 [DEET, N,N-diethyl-meta-toluamide]
[3]; 0.016 mg/mL
  % of affected ticks: 11%
[3]; 0.4 mg/mL
  % of affected ticks: 20%
[3]; 10 mg/mL
  % of affected ticks: 81%

## O=C(O)Cc1cccc(OCCCN(Cc2cccc(C(F)(F)F)c2Cl)CC(c2ccccc2)c2ccccc2)c1 [GW3965]
[7]
  Hyaluronan synthase 3 (HAS 3) RQ: 106
  Involucrin (IVL) RQ: 160

## CC(C)Cc1ccc(C(C)C(=O)O)cc1 (centres unmarked) [Ibuprofen]
[1]; 100 uM
  CXCL-5 % Reduction (vs LPS/EtOH): −19%
  CXCL-5 % Stimulation (vs Untreated): 2929%
  IL-6 % Reduction (vs LPS/EtOH): −24%
  IL-6 % Stimulation (vs Untreated): 16853%
  IL-8 % Reduction (vs LPS/EtOH): −14%
  IL-8 % Stimulation (vs Untreated): 11037%
  MCP-1 % Reduction (vs LPS/EtOH): −4%
  MCP-1 % Stimulation (vs Untreated): 1342%
[1]; 500 uM
  CXCL-5 % Reduction (vs LPS/EtOH): −39%
  CXCL-5 % Stimulation (vs Untreated): 2216%
  IL-6 % Reduction (vs LPS/EtOH): −46%
  IL-6 % Stimulation (vs Untreated): 11977%
  IL-8 % Reduction (vs LPS/EtOH): −36%
  IL-8 % Stimulation (vs Untreated): 8242%
  MCP-1 % Reduction (vs LPS/EtOH): −32%
  MCP-1 % Stimulation (vs Untreated): 950%
[2]; 100 uM
  IL-6 % Reduction (vs A23187/EtOH): −24%
  IL-6 % Stimulation (vs Untreated): 462%
  IL-8 % Reduction (vs PMA + A23187/EtOH): −19%
  IL-8 % Stimulation (vs Untreated): 16034%
  TNFα % Reduction (vs PMA + A23187/EtOH): −29%
  TNFα % Stimulation (vs Untreated): 55645%
  CXCL-5 % Reduction (vs TNFa/EtOH): −22%
  CXCL-5 % Stimulation (vs Untreated): 337%
  MCP-1 % Reduction (vs TNFa/EtOH): −18%
  MCP-1 % Stimulation (vs Untreated): 2471%
[2]; 500 uM
  IL-6 % Reduction (vs A23187/EtOH): −67%
  IL-6 % Stimulation (vs Untreated): 202%
  IL-8 % Reduction (vs PMA + A23187/EtOH): −39%
  IL-8 % Stimulation (vs Untreated): 12190%
  TNFα % Reduction (vs PMA + A23187/EtOH): −85%
  TNFα % Stimulation (vs Untreated): 12099%
  CXCL-5 % Reduction (vs TNFa/EtOH): −47%
  CXCL-5 % Stimulation (vs Untreated): 229%
  MCP-1 % Reduction (vs TNFa/EtOH): −63%
  MCP-1 % Stimulation (vs Untreated): 1126%
[2]; PMA + A23187 or TNF-α, dexamethasone with the exception of CXCL-5
  secretion levels of mediators of inflammation: reduced significantly
